Some test systems named below: ACHN renal; HCT-116 colon; HCT-15 colon; HT29 colon; MALME-3M melanoma; NCI-H226 lung; OVCAR-8 ovarian; SF-295 CNS; SK-MEL-2 melanoma; SNB-19 CNS.
What all share (test): DTP human tumour cell line panel, 48 h

Structures are written as SMILES.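 In this assay, cells in 96-well plates receive the compound at five concentrations for 48 hours. Endpoints are linearly interpolated between the surrounding concentrations. GI50 = concentration required for 50% inhibition of growth. TGI is the concentration that stops growth completely.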

For orientation: GI50 means the concentration giving 50% growth inhibition. By TGI is commonly meant the concentration at which net growth stops. Lower therefore signals greater sensitivity of the cells.

With `CCN(CCNc1ccc(C)c2sc3ccccc3c(=O)c12)CC(C)(C)O`, the GI50 with ACHN renal is 12.3 µM; with HCT-116 colon, 6.62 µM; in the assay on HCT-15 colon, 2.59 µM; in the assay on HT29 colon, 2.68 µM; with MALME-3M melanoma it was 17.8 µM; in the assay on NCI-H226 lung it was 15.2 µM. Besides, the GI50 in the assay with OVCAR-8 ovarian was 17.8 µM; with SF-295 CNS, 3.77 µM; in the assay on SK-MEL-2 melanoma, 11.9 µM; in the assay with SNB-19 CNS, 11.9 µM. Besides, the total growth inhibition concentration (TGI) in the assay on ACHN renal came out at 34.8 µM; in the assay on HCT-116 colon it was 22.6 µM; with HCT-15 colon, 7.78 µM; in the assay with HT29 colon, 7.84 µM; in the assay with MALME-3M melanoma it was 54.6 µM; in the assay with NCI-H226 lung, 33 µM. Further, the TGI was more than 71.6 µM in the assay on OVCAR-8 ovarian, 20.2 µM in the assay with SF-295 CNS, 33 µM with SK-MEL-2 melanoma and 25.9 µM with SNB-19 CNS.

For the compound `CCN1CSC(=S)N(CC)C1`, the TGI in the assay with ACHN renal, with HCT-116 colon, in the assay on HCT-15 colon, with HT29 colon, with MALME-3M melanoma and with NCI-H226 lung was more than 100 µM each time. Also, the TGI with OVCAR-8 ovarian, in the assay with SF-295 CNS, with SK-MEL-2 melanoma and with SNB-19 CNS was more than 100 µM throughout.

`CCOC(=O)C(=O)Nc1c(C(C)C)cccc1C(C)C`: the TGI with ACHN renal, with HCT-116 colon, in the assay with HCT-15 colon, in the assay with HT29 colon, in the assay with MALME-3M melanoma and in the assay with NCI-H226 lung was more than 100 µM each time. Also, the TGI in the assay on OVCAR-8 ovarian, in the assay on SF-295 CNS, with SK-MEL-2 melanoma and in the assay with SNB-19 CNS was more than 100 µM each time.

As for `C1=CC=C2NCCOCCNC3=CC=CC=CC3=NCCOCCN=C2C=C1`, the TGI was more than 100 µM in the assay with ACHN renal; more than 100 µM with HCT-116 colon; more than 100 µM with HCT-15 colon; 62.6 µM in the assay on HT29 colon; 76 µM in the assay with MALME-3M melanoma; more than 100 µM in the assay with NCI-H226 lung. The total growth inhibition concentration (TGI) with OVCAR-8 ovarian, in the assay on SF-295 CNS, in the assay with SK-MEL-2 melanoma and in the assay on SNB-19 CNS was more than 100 µM in each case.

For the compound `CC(C)(C)NC(=O)[C@H]1C[C@H]2CCCC[C@H]2CN1C[C@@H](O)[C@H](Cc1ccccc1)NC(=O)[C@H](CC(N)=O)NC(=O)c1ccc2ccccc2n1`, the GI50 was 16 µM in the assay with ACHN renal; 17 µM in the assay on HCT-116 colon; 14 µM with HCT-15 colon; 9.38 µM with HT29 colon; 17.7 µM with MALME-3M melanoma; 15.4 µM in the assay on NCI-H226 lung. Besides, the GI50 was 23 µM in the assay with OVCAR-8 ovarian, 18.3 µM with SF-295 CNS, 22.7 µM in the assay on SK-MEL-2 melanoma and 7.97 µM in the assay with SNB-19 CNS. Moreover, the concentration for total growth inhibition (TGI) with ACHN renal is 29.5 µM; in the assay with HCT-116 colon, more than 47.1 µM; in the assay on HCT-15 colon, 33.8 µM; in the assay on HT29 colon, 28.2 µM; with MALME-3M melanoma it was 37.8 µM; in the assay on NCI-H226 lung, 32.8 µM. In addition, the concentration for total growth inhibition (TGI) is 62.4 µM in the assay with OVCAR-8 ovarian, 39.3 µM in the assay with SF-295 CNS, more than 65.7 µM in the assay on SK-MEL-2 melanoma and 23 µM in the assay on SNB-19 CNS.

On to `C[C@]12CC[C@@H]3c4ccc(O)cc4C(O)C[C@H]3[C@@H]1CCC2=O` (stereo not given in full), for which the GI50 in the assay on ACHN renal was more than 100 µM; with HCT-116 colon, more than 100 µM; in the assay on HCT-15 colon it was more than 100 µM; in the assay with HT29 colon, 46.7 µM; in the assay with MALME-3M melanoma it was more than 100 µM; in the assay with NCI-H226 lung it was more than 100 µM. In addition, the GI50 in the assay with OVCAR-8 ovarian, in the assay with SF-295 CNS, in the assay on SK-MEL-2 melanoma and with SNB-19 CNS was more than 100 µM each time. The total growth inhibition concentration (TGI) in the assay with ACHN renal, with HCT-116 colon, with HCT-15 colon, with HT29 colon, in the assay on MALME-3M melanoma and in the assay on NCI-H226 lung was more than 100 µM throughout. Further, the TGI in the assay on OVCAR-8 ovarian, in the assay with SF-295 CNS, with SK-MEL-2 melanoma and in the assay on SNB-19 CNS was more than 100 µM throughout.

`O=C(O)CSc1ncccc1[N+](=O)[O-]`: the TGI with ACHN renal, in the assay on HCT-116 colon, in the assay on HCT-15 colon, with HT29 colon, with MALME-3M melanoma and in the assay with NCI-H226 lung was more than 100 µM throughout. The total growth inhibition concentration (TGI) in the assay with OVCAR-8 ovarian, in the assay on SF-295 CNS, in the assay on SK-MEL-2 melanoma and in the assay with SNB-19 CNS was more than 100 µM in each case.

Consider `C=C=C(C(=O)OC)S(=O)c1ccc([N+](=O)[O-])cc1[N+](=O)[O-]` (stereo not given), for which the TGI with ACHN renal was more than 68.5 µM; in the assay on HCT-116 colon, 50.3 µM; in the assay with HCT-15 colon it was 45.3 µM; in the assay with HT29 colon, 52.9 µM; in the assay with MALME-3M melanoma, more than 86.2 µM; with NCI-H226 lung, more than 100 µM. Besides, the total growth inhibition concentration (TGI) is 55.1 µM in the assay on OVCAR-8 ovarian, more than 100 µM in the assay with SF-295 CNS, more than 79.8 µM in the assay on SK-MEL-2 melanoma and more than 100 µM in the assay with SNB-19 CNS.

For the compound `CCCCCCN(CCCCCC)CC(O)c1ccc2c3c(cccc13)CC2` (stereo not given), the GI50 is 10 µM in the assay with ACHN renal; 1.68 µM in the assay on HCT-116 colon; 6.63 µM in the assay with HCT-15 colon; 1.18 µM in the assay with HT29 colon; 14.1 µM in the assay on MALME-3M melanoma; 8.06 µM with NCI-H226 lung. The GI50 is 13.1 µM with OVCAR-8 ovarian, 1.17 µM with SF-295 CNS, 11 µM in the assay on SK-MEL-2 melanoma and 11.8 µM in the assay on SNB-19 CNS. In addition, the total growth inhibition concentration (TGI) in the assay on ACHN renal was found to be 23.5 µM; with HCT-116 colon, 13.2 µM; in the assay with HCT-15 colon, 25.1 µM; in the assay with HT29 colon, 13.2 µM; in the assay with MALME-3M melanoma it was 32.1 µM; with NCI-H226 lung it was 22.9 µM. In addition, the TGI in the assay with OVCAR-8 ovarian is 29.4 µM; with SF-295 CNS, 12 µM; in the assay on SK-MEL-2 melanoma, 24.7 µM; in the assay with SNB-19 CNS, 26.6 µM.

Consider `O=C1CCC(O)=C1O`, for which the TGI in the assay on ACHN renal, in the assay with HCT-116 colon, in the assay with HCT-15 colon, with HT29 colon, in the assay on MALME-3M melanoma and in the assay on NCI-H226 lung was more than 100 µM throughout. Besides, the total growth inhibition concentration (TGI) in the assay with OVCAR-8 ovarian, with SF-295 CNS, in the assay with SK-MEL-2 melanoma and in the assay with SNB-19 CNS was more than 100 µM throughout.

These data come from PubChem BioAssay (NCI).
